The test system of the assay is D-type cyclins. In words: Co-expression with D-type cyclins in Sf9 cells and co-precipitation. In kind it is binding, mouse. Here is the method:
BamHI linkers are added to an XbaI-EcoRV cDNA fragment containing the entire DMP1 coding sequence, and the fragment is inserted into the BamHI site of the pAcYM1 baculovirus vector (37). Production of virus and infection of Spodoptera frugiperda (Sf9) cells are performed as previously described (23). For preparation of radiolabeled cell lysates, cells infected with the indicated recombinant viruses encoding DMP1, CDKs, and/or cyclins are metabolically labeled 40 hours post-infection for 8 additional hours with 50 uCi/ml of [^35S]methionine (1000 Ci/mmol; ICN, Irvine Calif.) in methionine-free medium or for 4 additional hours with 250 uCi/ml of carrier-free ^32P-orthophosphate (9000 Ci/mmol, Amersham) in phosphate-free medium. Cells suspended in 0.25 ml Kinase buffer containing protease and phosphatase inhibitors [2.5 mM EGTA, 0.1 mM phenylmethyl sulfonylfluoride (PMSF), 2% aprotinin, 1 mM β-glycerophosphate, 0.1 mM Na3VO4, and 0.1 mM NaF] are lysed by repeated freezing and thawing and clarified by centrifuigation. […]
We next co-expressed full length DMP1 together with D-type cyclins under baculovirus vector control in insect Sf9 cells. […] Electrophoretic separation of unfractionated metabolically labeled lysates from infected cells enabled direct autoradiographic visualization and relative quantitation of the recombinant mouse proteins (FIG. 3A). […]

As to “DMP1: murine cyclin D-associated myb-like transcription factor, 761 amino acids, SEQ ID NO:1”, the “DMP1 molecules forming stable complexes with D-type cyclins” value (coexpressed in Sf9 cells) is at most 15%. In addition, under “coinfected Sf9 cells, approximately equivalent levels of protein and cyclin D2 or cyclin D3”, the cyclin stably bound is on record as 5-15%.

These data come from patent US6673902B2, “Cyclin D binding factor, and uses thereof” (St. Jude Children's Research Hospital, priority 1996, dated 2004).
